According to publication PMC10824666 (Nature Cancer, 2023):
Like-named read-outs stand apart in the source and are kept apart here.

Tests used:
Test in all cases: biochemical
Design in all cases: Eurofins DiscoverX kinase panel, competitive binding assay at 1 uM, percent of DMSO control
Settings in all cases: competitive binding, percent of DMSO control
[1] = target: T1, MSK1 (Homo sapiens, UniProt O75582)
T1 construct: gene RPS6KA5
Summary of the method: (§1)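 Competitive binding assay across a 96-kinase panel with KIF18A compounds at 1 µM; values given as percentage of control (POC), single experiment.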

[2] = target: T2, MEK5 (Homo sapiens, UniProt Q13163)
T2 construct: gene MAP2K5
T2 sequence (Q13163 1-448): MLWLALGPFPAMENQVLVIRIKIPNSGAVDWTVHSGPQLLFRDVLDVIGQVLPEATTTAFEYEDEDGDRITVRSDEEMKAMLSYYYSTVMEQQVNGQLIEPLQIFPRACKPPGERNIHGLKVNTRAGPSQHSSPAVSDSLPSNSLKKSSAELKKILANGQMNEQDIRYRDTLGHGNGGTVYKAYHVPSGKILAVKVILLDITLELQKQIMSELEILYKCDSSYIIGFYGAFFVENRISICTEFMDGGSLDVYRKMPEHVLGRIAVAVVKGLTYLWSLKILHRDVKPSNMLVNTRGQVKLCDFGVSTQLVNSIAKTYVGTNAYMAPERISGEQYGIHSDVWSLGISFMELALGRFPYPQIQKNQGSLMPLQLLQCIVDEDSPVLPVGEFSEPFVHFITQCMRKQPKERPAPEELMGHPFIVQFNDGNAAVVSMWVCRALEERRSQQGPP
Summary of the method: as §1

[3] = target: T3, Abl_phos (Homo sapiens, UniProt P00519)
T3 construct: gene ABL1; phosphorylated
Summary of the method: as §1

[4] = target: T4, CHK1 (Homo sapiens, UniProt O14757)
T4 construct: gene CHEK1
T4 sequence (O14757 1-476): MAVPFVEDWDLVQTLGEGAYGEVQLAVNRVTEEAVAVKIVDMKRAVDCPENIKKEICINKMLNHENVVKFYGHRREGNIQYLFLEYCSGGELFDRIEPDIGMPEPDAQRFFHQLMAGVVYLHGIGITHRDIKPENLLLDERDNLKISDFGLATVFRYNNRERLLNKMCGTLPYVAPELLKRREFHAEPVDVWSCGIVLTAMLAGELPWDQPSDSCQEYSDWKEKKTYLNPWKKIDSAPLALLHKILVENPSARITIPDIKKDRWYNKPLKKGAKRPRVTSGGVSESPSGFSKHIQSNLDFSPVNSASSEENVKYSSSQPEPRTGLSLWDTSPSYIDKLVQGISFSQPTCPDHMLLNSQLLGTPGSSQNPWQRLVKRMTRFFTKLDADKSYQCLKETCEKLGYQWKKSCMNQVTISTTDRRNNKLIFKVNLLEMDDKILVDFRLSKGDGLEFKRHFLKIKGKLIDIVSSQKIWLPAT
Summary of the method: as §1

[5] = target: CDK4 (Homo sapiens, UniProt P11802)
Summary of the method: as §1

[6] = target: HIPK1 (Homo sapiens, UniProt Q86Z02)
Summary of the method: as §1

[7] = target: JAK2 (Homo sapiens, UniProt O60674)
Summary of the method: as §1

[8] = read-out: Kinome Profiling performed by Eurofins DiscoverX / AM-1882, 1.0 µM / POC
[9] = read-out: Kinome Profiling performed by Eurofins DiscoverX / AM-0277, 1.0 µM / POC
[10] = read-out: Kinome Profiling performed by Eurofins DiscoverX / AM-5308, 1.0 µM / POC

Chain of CDK4 (P11802 whole entry): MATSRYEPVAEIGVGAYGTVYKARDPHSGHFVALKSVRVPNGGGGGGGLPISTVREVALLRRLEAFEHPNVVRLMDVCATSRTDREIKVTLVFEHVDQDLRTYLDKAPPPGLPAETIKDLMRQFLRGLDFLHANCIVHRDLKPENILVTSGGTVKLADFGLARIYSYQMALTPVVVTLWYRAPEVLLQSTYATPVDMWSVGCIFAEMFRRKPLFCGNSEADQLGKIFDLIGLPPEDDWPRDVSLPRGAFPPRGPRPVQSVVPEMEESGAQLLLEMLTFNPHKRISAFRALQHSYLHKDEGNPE
T1 sequence (O75582 whole entry): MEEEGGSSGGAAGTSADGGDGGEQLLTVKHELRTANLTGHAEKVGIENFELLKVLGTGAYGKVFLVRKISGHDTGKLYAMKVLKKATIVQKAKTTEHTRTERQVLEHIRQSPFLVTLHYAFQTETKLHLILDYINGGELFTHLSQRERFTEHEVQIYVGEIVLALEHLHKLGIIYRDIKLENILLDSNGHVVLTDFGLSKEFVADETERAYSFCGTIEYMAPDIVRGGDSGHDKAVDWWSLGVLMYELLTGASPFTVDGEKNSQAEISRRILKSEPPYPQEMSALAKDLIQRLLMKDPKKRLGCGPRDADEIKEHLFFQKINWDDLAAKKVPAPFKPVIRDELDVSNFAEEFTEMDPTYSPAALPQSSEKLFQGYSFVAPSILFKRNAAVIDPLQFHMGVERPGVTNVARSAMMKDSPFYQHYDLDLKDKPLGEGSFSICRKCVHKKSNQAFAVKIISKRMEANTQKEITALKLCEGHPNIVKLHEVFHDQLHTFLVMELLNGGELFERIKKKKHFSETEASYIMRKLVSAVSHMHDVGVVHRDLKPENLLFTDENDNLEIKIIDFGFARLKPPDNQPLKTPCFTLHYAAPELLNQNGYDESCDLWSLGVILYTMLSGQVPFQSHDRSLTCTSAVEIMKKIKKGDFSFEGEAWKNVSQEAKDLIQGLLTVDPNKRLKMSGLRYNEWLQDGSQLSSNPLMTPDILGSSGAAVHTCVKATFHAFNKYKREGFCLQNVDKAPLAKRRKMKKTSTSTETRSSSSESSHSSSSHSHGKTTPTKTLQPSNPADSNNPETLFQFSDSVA
Chain of JAK2 (O60674 whole entry): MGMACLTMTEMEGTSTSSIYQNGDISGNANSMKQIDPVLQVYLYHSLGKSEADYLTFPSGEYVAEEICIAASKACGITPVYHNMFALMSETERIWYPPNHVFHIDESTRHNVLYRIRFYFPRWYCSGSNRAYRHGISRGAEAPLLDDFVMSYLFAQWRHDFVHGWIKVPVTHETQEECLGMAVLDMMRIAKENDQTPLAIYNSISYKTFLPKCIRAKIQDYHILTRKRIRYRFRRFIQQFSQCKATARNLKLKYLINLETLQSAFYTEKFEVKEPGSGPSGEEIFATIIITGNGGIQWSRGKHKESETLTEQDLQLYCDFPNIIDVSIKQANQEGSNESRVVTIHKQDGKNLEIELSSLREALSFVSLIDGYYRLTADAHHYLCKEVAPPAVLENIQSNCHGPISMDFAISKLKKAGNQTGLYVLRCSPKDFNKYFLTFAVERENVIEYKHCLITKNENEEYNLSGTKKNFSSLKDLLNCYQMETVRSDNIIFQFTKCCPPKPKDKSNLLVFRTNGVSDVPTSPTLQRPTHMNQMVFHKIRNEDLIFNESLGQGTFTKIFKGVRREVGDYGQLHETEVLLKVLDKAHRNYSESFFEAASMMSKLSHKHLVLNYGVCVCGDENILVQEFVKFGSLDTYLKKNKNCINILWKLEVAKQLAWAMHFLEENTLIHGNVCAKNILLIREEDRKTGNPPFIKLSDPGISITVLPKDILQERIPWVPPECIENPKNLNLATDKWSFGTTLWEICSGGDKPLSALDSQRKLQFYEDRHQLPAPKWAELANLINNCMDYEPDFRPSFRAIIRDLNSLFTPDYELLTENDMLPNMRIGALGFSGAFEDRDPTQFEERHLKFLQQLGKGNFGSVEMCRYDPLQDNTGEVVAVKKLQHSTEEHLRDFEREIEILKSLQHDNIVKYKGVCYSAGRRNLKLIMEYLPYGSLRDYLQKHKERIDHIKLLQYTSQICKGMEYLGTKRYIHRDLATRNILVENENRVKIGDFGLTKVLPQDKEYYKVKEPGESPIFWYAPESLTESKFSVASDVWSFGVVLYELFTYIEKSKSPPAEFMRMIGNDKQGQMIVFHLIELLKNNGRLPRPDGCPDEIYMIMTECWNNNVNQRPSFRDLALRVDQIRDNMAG
T3 sequence (P00519 whole entry): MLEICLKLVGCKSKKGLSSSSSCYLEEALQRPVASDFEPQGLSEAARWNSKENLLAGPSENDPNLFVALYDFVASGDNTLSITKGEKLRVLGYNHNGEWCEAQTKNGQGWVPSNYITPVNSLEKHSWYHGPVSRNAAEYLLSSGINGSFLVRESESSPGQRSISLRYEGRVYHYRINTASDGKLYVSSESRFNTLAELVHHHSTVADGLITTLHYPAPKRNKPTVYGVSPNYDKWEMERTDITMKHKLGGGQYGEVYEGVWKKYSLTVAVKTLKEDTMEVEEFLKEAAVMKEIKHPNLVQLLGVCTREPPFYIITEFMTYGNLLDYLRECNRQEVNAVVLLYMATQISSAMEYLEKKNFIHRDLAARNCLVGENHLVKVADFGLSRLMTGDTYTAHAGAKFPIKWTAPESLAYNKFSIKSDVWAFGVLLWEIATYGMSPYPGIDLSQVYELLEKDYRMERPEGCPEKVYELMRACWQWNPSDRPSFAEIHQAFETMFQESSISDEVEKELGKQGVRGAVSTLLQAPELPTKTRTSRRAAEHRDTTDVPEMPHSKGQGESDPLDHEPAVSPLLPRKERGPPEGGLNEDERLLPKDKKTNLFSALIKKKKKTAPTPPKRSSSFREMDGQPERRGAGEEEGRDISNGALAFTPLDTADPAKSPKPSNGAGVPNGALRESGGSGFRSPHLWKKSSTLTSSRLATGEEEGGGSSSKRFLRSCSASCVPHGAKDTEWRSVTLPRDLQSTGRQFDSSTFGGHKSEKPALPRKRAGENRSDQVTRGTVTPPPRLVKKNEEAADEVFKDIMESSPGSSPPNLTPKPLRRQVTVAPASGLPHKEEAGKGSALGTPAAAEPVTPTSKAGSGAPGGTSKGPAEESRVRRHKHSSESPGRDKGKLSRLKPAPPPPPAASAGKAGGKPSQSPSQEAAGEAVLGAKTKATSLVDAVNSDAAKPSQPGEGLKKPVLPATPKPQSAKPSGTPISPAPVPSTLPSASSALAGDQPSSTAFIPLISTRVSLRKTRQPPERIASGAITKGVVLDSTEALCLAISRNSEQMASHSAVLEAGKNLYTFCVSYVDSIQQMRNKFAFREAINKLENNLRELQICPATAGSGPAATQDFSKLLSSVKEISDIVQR
Chain of HIPK1 (Q86Z02 whole entry): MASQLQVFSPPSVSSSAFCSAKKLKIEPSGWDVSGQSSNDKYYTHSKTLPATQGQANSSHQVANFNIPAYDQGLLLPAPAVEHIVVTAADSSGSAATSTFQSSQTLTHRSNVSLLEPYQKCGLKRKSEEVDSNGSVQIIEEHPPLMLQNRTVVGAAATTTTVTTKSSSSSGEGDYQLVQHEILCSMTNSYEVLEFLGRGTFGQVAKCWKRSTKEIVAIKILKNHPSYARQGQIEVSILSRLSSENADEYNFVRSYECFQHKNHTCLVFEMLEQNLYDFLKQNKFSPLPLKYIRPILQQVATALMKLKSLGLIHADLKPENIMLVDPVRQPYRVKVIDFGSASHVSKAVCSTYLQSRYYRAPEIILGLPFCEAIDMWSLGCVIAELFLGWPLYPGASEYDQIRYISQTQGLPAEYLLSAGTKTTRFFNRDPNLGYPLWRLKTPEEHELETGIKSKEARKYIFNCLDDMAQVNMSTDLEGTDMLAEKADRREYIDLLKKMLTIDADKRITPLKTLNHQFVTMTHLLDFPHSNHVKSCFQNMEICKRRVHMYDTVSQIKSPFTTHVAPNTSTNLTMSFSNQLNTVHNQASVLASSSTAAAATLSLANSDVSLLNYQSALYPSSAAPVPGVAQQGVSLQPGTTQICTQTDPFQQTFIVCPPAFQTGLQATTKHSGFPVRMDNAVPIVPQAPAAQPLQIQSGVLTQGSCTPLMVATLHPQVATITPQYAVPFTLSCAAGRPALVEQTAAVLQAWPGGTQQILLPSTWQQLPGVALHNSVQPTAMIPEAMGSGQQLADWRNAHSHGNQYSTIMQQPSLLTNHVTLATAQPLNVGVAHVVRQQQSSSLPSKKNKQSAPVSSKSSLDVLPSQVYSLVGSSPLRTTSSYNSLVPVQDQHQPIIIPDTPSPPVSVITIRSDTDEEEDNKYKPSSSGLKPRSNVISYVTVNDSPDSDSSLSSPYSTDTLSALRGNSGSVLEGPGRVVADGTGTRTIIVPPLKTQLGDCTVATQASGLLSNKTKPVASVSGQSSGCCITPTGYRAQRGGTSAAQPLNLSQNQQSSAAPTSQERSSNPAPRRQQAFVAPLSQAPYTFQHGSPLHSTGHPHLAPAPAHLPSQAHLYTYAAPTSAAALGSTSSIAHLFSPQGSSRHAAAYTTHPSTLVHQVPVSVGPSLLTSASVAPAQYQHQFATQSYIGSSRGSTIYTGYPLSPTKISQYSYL

CC(C)(C)NS(=O)(=O)c1cccc(NC(=O)c2ccc(S(=O)(=O)NC(C)(C)C)cc2N2CCC3(CC2)CC3)c1 [AM-1882]
remaining activity at 1 µM [1, 8]: 100%
remaining activity at 1 µM [2, 8]: 38.5%
remaining activity at 1 µM [3, 8]: 63.5%
remaining activity at 1 µM [4, 8]: 100%
remaining activity at 1 µM [5, 8]: 64%
remaining activity at 1 µM [6, 8]: 73%
remaining activity at 1 µM [7, 8]: 100%

CC(C)(CO)Nc1ccc(C(=O)Nc2cccc(S(=O)(=O)C3CCCC3)c2)c(N2CCC3(CC2)CC3)n1 [AM-0277]
remaining activity at 1 µM [1, 9]: 94%
remaining activity at 1 µM [2, 9]: 86%
remaining activity at 1 µM [3, 9]: 46%
remaining activity at 1 µM [4, 9]: 100%
remaining activity at 1 µM [5, 9]: 100%
remaining activity at 1 µM [6, 9]: 61%
remaining activity at 1 µM [7, 9]: 100%

C[C@@H]1CN(c2cccc(NC(=O)c3ccc(NS(=O)(=O)CCO)cc3N3CCC4(CC3)CC4)n2)CCO1 [AM-5308]
remaining activity at 1 µM [1, 10]: 91.5%
remaining activity at 1 µM [2, 10]: 99.5%
remaining activity at 1 µM [3, 10]: 98.5%
remaining activity at 1 µM [4, 10]: 100%
remaining activity at 1 µM [5, 10]: 98.5%
remaining activity at 1 µM [6, 10]: 100%
remaining activity at 1 µM [7, 10]: 94.5%
